Test results: patent publication US11339171B2, “MDM2 inhibitors” (Gan & Lee Pharmaceuticals, priority 2017, dated 2022)

How the values were obtained:
[1] = target: T1, MDM2 (Homo sapiens, UniProt Q00987); experiment: Inhibition test of MDM2-P53 (GST-MDM2, Biotin-P53, Anti-GST-Tb, SA-XL665); format: binding
T1 construct: made in house
How it was run: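 HTRF-type assay using 4 nM GST-MDM2 (final), Biotin-P53, SA-XL665 and anti-GST-Tb in PBS with 0.1% BSA, 5 mM DTT and 1 mM AEBSF. Compounds in 5-fold serial dilutions over twelve points; incubation 90 min at 25° C with shaking before plate-reader read-out.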

[2] = tested on: human osteosarcoma cell line SJSA-1; experiment: Inhibition of proliferation of human osteosarcoma cell line SJSA-1 (DAPI staining, In Cell Analyzer); conditions: Homo sapiens, SJSA-1, 72 h, read-out: IC50 (nM), inhibitory activity on proliferation of human osteosarcoma cell line SJSA-1, SJSA-1, incubated 72 h

T1 sequence (Q00987 whole entry): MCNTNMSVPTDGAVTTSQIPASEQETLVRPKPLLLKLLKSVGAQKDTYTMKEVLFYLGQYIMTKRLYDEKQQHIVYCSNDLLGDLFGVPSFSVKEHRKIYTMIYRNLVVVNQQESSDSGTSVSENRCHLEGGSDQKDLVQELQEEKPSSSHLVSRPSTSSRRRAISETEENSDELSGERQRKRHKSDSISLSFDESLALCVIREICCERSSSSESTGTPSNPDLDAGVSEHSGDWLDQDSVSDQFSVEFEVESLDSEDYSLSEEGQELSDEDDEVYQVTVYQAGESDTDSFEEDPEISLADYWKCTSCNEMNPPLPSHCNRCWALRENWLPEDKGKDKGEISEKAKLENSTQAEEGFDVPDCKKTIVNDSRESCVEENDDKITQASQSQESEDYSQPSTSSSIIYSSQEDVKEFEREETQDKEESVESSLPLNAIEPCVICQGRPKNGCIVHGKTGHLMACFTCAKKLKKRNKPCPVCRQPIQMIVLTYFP

Compound | IC50 [1] | IC50 [2]
COc1nc(N(C)C)ncc1-c1nc2c(n1C(C)C)[C@@]1(C(=O)Nc3cc(Cl)ccc31)N(c1cc(Cl)ccc1C)C2=O [Example S-82, (S)-6-chloro-5′-(5-chloro-2-methylphenyl)-2′-(2-(dimethylamino)-4-methoxypyrimidin-5-yl)-3′-isopropyl-3′H-spiro[dihydroindole-3,4′-pyrrolo[3,4-d]imidazole]-2,6′(5′H)-dione] | 1.16 nM | 7.43 nM
COc1cc(OC)c(-c2nc3c(n2C(C)C)[C@@]2(C(=O)Nc4cc(Cl)ccc42)N(c2cc(Cl)ccc2C)C3=O)cc1C [Example S-83, (S)-6-chloro-5′-(5-chloro-2-methylphenyl)-2′-(2,4-dimethoxy-5-methylphenyl)-3′-isopropyl-3′H-spiro[dihydroindole-3,4′-pyrrolo[3,4-d]imidazole]-2,6′(5′H)-dione] | 2.23 nM | 6.21 nM
COc1cc(C(F)(F)F)ccc1-c1nc2c(n1C(C)C)[C@@]1(C(=O)Nc3cc(Cl)ccc31)N(c1cc(Cl)ccc1C)C2=O [Example S-85, (S)-6-chloro-5′-(5-chloro-2-methylphenyl)-3′-isopropyl-2′-(2-methoxy-4-(trifluoromethyl)phenyl)-3′H-spiro[dihydroindole-3,4′-pyrrolo[3,4-d]imidazole]-2,6′(5′H)-dione] | 3.3 nM | 40.2 nM
COc1cc(C2CC2)ccc1-c1nc2c(n1C(C)C)[C@@]1(C(=O)Nc3cc(Cl)ccc31)N(c1cc(Cl)ccc1C)C2=O [Example S-86, (S)-6-chloro-5′-(5-chloro-2-methylphenyl)-2′-(4-cyclopropyl-2-methoxyphenyl)-3′-isopropyl-3′H-spiro[dihydroindole-3,4′-pyrrolo[3,4-d]imidazole]-2,6′(5′H)-dione] | 2.59 nM | 21.2 nM
COc1cc(OC(F)(F)F)ccc1-c1nc2c(n1C(C)C)[C@@]1(C(=O)Nc3cc(Cl)ccc31)N(c1cc(Cl)ccc1C)C2=O [Example S-87, (S)-6-chloro-5′-(5-chloro-2-methylphenyl)-3′-isopropyl-2′-(2-methoxy-4-(trifluoromethoxy)phenyl)-3′H-spiro[dihydroindole-3,4′-pyrrolo[3,4-d]imidazole]-2,6′(5′H)-dione] | 3.31 nM | 11.1 nM
CCOc1ccc(-c2nc3c(n2C(C)C)[C@@]2(C(=O)Nc4cc(Cl)ccc42)N(c2cc(Cl)ccc2C)C3=O)c(OC)c1 [Example S-88, (S)-6-chloro-5′-(5-chloro-2-methylphenyl)-2′-(4-ethoxy-2-methoxyphenyl)-3′-isopropyl-3′H-spiro[dihydroindole-3,4′-pyrrolo[3,4-d]imidazole]-2,6′(5′H)-dione] | 2.34 nM | 77.3 nM
COc1cc(C(C)C)ccc1-c1nc2c(n1C(C)C)[C@@]1(C(=O)Nc3cc(Cl)ccc31)N(c1cc(Cl)cnc1C)C2=O [Example S-89, (S)-6-chloro-5′-(5-chloro-2-methylpyridin-3-yl)-3′-isopropyl-2′-(4-isopropyl-2-methoxyphenyl)-3′H-spiro[dihydroindole-3,4′-pyrrolo[3,4-d]imidazole]-2,6′(5′H)-dione] | 4.32 nM | 43.2 nM
COc1nc(N)ncc1-c1nc2c(n1C(C)C)[C@@]1(C(=O)Nc3cc(Cl)ccc31)N(c1cc(Cl)ccc1C)C2=O [Example S-90, (S)-2′-(2-amino-4-methoxypyrimidin-5-yl)-6-chloro-5′-(5-chloro-2-methylphenyl)-3′-isopropyl-3′H-spiro[dihydroindole-3,4′-pyrrolo[3,4-d]imidazole]-2,6′(5′H)-dione] | 1.38 nM | 255 nM
COc1cc(N(C)C)c(C)cc1-c1nc2c(n1C(C)C)[C@@]1(C(=O)Nc3cc(Cl)ccc31)N(c1cc(Cl)ccc1C)C2=O [Example S-91, (S)-6-chloro-5′-(5-chloro-2-methylphenyl)-2′-(4-(dimethylamino)-2-methoxy-5-methylphenyl)-3′-isopropyl-3′H-spiro[dihydroindole-3,4′-pyrrolo[3,4-d]imidazole]-2,6′(5′H)-dione] | 3.56 nM | 14.4 nM
COc1cc(OC)c(-c2nc3c(n2C(C)C)[C@@]2(C(=O)Nc4cc(Cl)ccc42)N(c2cc(Cl)ccc2C)C3=O)cc1F [Example S-92, (S)-6-chloro-5′-(5-chloro-2-methylphenyl)-2′-(5-fluoro-2,4-dimethoxyphenyl)-3′-isopropyl-3′H-spiro[dihydroindole-3,4′-pyrrolo[3,4-d]imidazole]-2,6′(5′H)-dione] | 1.72 nM | 19.9 nM
CCOc1ccc(-c2nc3c(n2C(C)C)[C@@]2(C(=O)Nc4cc(Cl)ccc42)N(c2cc(Cl)ccc2F)C3=O)c(OC)c1 [Example S-94, (S)-6-chloro-5′-(5-chloro-2-fluorophenyl)-2′-(4-ethoxy-2-methoxyphenyl)-3′-isopropyl-3′H-spiro[dihydroindole-3,4′-pyrrolo[3,4-d]imidazole]-2,6′(5′H)-dione] | 4.72 nM | 309 nM
COc1cc(OC(C)C)ncc1-c1nc2c(n1C(C)C)[C@@]1(C(=O)Nc3cc(Cl)ccc31)N(c1cccc(Cl)c1)C2=O [Example S-95, (S)-6-chloro-5′-(3-chlorophenyl)-2′-(6-isopropoxy-4-methoxypyridin-3-yl)-3′-isopropyl-3′H-spiro[dihydroindole-3,4′-pyrrolo[3,4-d]imidazole]-2,6′(5′H)-dione] | 1.92 nM | 49.5 nM
CCOc1ncc(-c2nc3c(n2C(C)C)[C@@]2(C(=O)Nc4cc(Cl)ccc42)N(c2cc(Cl)ccc2F)C3=O)c(OC)n1 [Example S-97, (S)-6-chloro-5′-(5-chloro-2-fluorophenyl)-2′-(2-ethoxy-4-methoxypyrimidin-5-yl)-3′-isopropyl-3′H-spiro[dihydroindole-3,4′-pyrrolo[3,4-d]imidazole]-2,6′(5′H)-dione] | 3.94 nM | 167 nM
CCN(C)c1ccc(-c2nc3c(n2C(C)C)[C@@]2(C(=O)Nc4cc(Cl)ccc42)N(c2cc(Cl)ccc2C)C3=O)c(OC)c1 [Example S-99, (S)-6-chloro-5′-(5-chloro-2-methylphenyl)-2′-(4-(ethyl(methyl)amino)-2-methoxyphenyl)-3′-isopropyl-3′H-spiro[dihydroindole-3,4′-pyrrolo[3,4-d]imidazole]-2,6′(5′H)-dione] | 2.56 nM | 34.2 nM
CCOc1ccc(-c2nc3c(n2C(C)C)[C@@]2(C(=O)Nc4cc(Cl)ccc42)N(c2cccc(Cl)c2)C3=O)c(OC)c1 [Example S-100, (S)-6-chloro-5′-(3-chlorophenyl)-2′-(4-ethoxy-2-methoxyphenyl)-3′-isopropyl-3′H-spiro[dihydroindole-3,4′-pyrrolo[3,4-d]imidazole]-2,6′(5′H)-dione] | 3.14 nM | 1210 nM
COc1cc(C(C)(C)C)ccc1-c1nc2c(n1C(C)C)[C@@]1(C(=O)Nc3cc(Cl)ccc31)N(c1cc(Cl)ccc1C)C2=O [Example S-101, (S)-2′-(4-(tert-butyl)-2-methoxyphenyl)-6-chloro-5′-(5-chloro-2-methylphenyl)-3′-isopropyl-3′H-spiro[dihydroindole-3,4′-pyrrolo[3,4-d]imidazole]-2,6′(5′H)-dione] | 9.86 nM | 48.5 nM
CCOc1cc(OC)c(-c2nc3c(n2C(C)C)[C@@]2(C(=O)Nc4cc(Cl)ccc42)N(c2cccc(Cl)c2)C3=O)cn1 [Example S-102, (S)-6-chloro-5′-(3-chlorophenyl)-2′-(6-ethoxy-4-methoxypyridin-3-yl)-3′-isopropyl-3′H-spiro[dihydroindole-3,4′-pyrrolo[3,4-d]imidazole]-2,6′(5′H)-dione] | 2.01 nM | 57.4 nM
